Holding throughout (format): in vivo, C57BL/6 male mice
Assay [1] relates to immunosuppressed animals induced by anticancer drug (cyclophosphamide). Description: Immunosuppressed animals induced by cyclophosphamide: improvement effect in spleen. Conditions: cyclophosphamide (CP)-treated mice, 1×10^9 CFU/mouse orally once a day for 5 days; for Foxp3 (fold change) / Tbet (fold change) / Tbet/Foxp3: spleen qPCR; for IFN-γ/IL-10 / IL-10 / Interferon (IFN)-γ / NK cell cytoxicity (%) / Phagocytosis (%) / TNF-a/IL-10 / TNF-α: spleen. As for the experimental part:
(§1) Hippocampus, colon, and spleen tissues were homogenized by adding 1 ml of RIPA buffer (Gibco) containing protease inhibitor cocktail and centrifuged at 4° C., 13000 rpm for 15 min to obtain supernatant. Indicators of this supernatant were measured using an ELISA kit (Ebioscience).
mRNA was isolated from spleen tissue using the RNA Isolation Kit: RNeasy Mini Kit (QIAGEN), converted to cDNA, and qPCR was performed to measure the expression rates of Tbet, Foxp3, and glyceraldehyde 3-phosphate dehydrogenase (GAPDH). The reaction product was first treated at 95° C. for 30 seconds, followed by 38 cycles of 5 seconds at 95° C. and 30 seconds at 72° C. for analysis.
C57BL/6 male mice (5 weeks old, 19-21 g) were divided (6 mice in each group) and acclimatized to the laboratory for 1 week. To induce intestinal and brain diseases, the mice were administered with cyclophosphamide (CP, 150 mg/kg, dissolved in physiological saline) for 1 day, rested for 1 day, and then administered intraperitoneally the next day. Meanwhile, the normal group was administered intraperitoneally with 0.1 ml of physiological saline. […] The day following the conclusion of sample administration, the experimental animals were sacrificed, and samples from the brain hippocampus, colon, and spleen were collected. In the Hippocampus, inflammatory indicators, such as IFN-γ, TNF-α, and IL-10, were measured using ELISA. In the colon, intestinal length and inflammatory indicators, such as IFN-γ, TNF-α, and IL-10, were measured. In the spleen, Th1 cells and Treg cells were measured by FACS (Fluorescence-Activated Cell Sorting).
For orientation: Real-time PCR tracks product formation cycle by cycle.

Assay [2] deals with animals with LPS-induced cognitive impairment. Description: Animals with LPS-induced cognitive impairment: cognitive improvement, hippocampus indicators. The note with it: LPS-treated mice, 1×10^9 CFU/mouse or sulfasalazine 50 mg/kg once a day for 5 days. As for the experimental part:
as §1
The Y-shaped maze measurement device is shaped like an alphabetical Y with three arms extending from it, each arm being 25 cm long, 14 cm high, 5 cm wide, and positioned at the same angle. At the end of one arm of the Y-shaped maze, the animal was placed with its head facing out and allowed to freely navigate the arm for 8 minutes. The animal's movements were recorded, and reported as arm entries when the animal entered the arm with its hind paw, and the animal's movement was represented by an alternation, which was defined as one alternation when the animal passed through the three arms in succession. The amount of spontaneous alternation behavior was expressed as a percentage between the actual number of alternations and the maximum possible number of alternations (i.e., the total number of […] minus 2).
The experiment was conducted in a box (40×40×40 cm) made so that the outside could not be seen from the inside. Two objects (A, A′) of the same shape and size were fixedly disposed in a box and the mouse was relocated to start from the center of the box. Then, the number of times the mouse made contact with the two objects was recorded for 10 minutes. After 24 hours, one of the two objects was replaced with a new object (A, B). Then, one original object and one new object were prepared, and the animal's exploration time was measured.
C57BL/6 male mice (5 weeks old, 19-21 g) were divided (6 mice in each group) and acclimatized to the laboratory for 1 week. To induce intestinal and brain diseases, mice were intraperitoneally administered Escherichia coli-derived LPS (10 μg/kg) once daily for 5 days. […] Experimental animals in the normal group were orally administered with a physiological saline solution, which was used to suspend lactic acid bacteria. The day following the conclusion of sample administration, the experimental animals were sacrificed, and samples from the brain hippocampus, colon, and spleen were collected. In the Hippocampus, inflammatory indicators, such as IFN-γ, TNF-α, and IL-10, were measured using ELISA. In the colon, intestinal length and inflammatory indicators, such as IFN-γ, TNF-α, and IL-10, were measured. In the spleen, Th1 cells and Treg cells were measured by FACS (Fluorescence-Activated Cell Sorting).

The next assay deals with healthy animal. Description: Healthy animal: colon parameters. Conditions: healthy mice, 1×10^9 CFU/mouse orally once a day for 5 days. The protocol: To 100 mg of colon tissue, 200 μl of 10 mM potassium phosphate buffer (pH 7.0) containing 0.5% hexadecyl trimethyl ammonium bromide was added and homogenized. Then, the supernatant was obtained by centrifugation for 10 minutes at 4° C. and 10,000 g. A volume of 50 μl of the supernatant was added to 0.95 mk of reaction solution (containing 1.6 mM tetramethyl benzidine and 0.1 mM H2O2), reacted at 37° C., and absorbance was monitored over time at 650 nm.
as §1
C57BL/6 male mice (5 weeks old, 19-21 g) were divided (6 mice in each group) and acclimatized to the laboratory for 1 week. The mice were orally administered once a day for 5 days with lactic acid bacteria as a test sample suspended in physiological saline solution at a concentration of 1×10^9 CFU per mouse (NK210 alone (LR): 1×10^9 CFU/mouse, NK219 alone (BL): 1×10^9 CFU/mouse, combined (210+219): 210, 8×10^8 CFU/mouse and 219, 2×10^8 CFU/mouse). […] The day following the conclusion of sample administration, the experimental animals were sacrificed, and samples from the brain hippocampus, colon, and spleen were collected. In the Hippocampus, inflammatory indicators, such as IFN-γ, TNF-α, and IL-10, were measured using ELISA. In the colon, intestinal length and inflammatory indicators, such as IFN-γ, TNF-α, and IL-10, were measured. In the spleen, Th1 cells and Treg cells were measured by FACS (Fluorescence-Activated Cell Sorting).

On to Bifidobacterium longum NK219, for which, in assay [1], the “Foxp3 (fold change)” value was 0.36 fold change, the “Tbet (fold change)” value was 0.95 fold change, the Tbet/Foxp3 came out at 2.49 and the IFN-γ/IL-10 is 2.11. Also, in assay [1], the IL-10 was 2.90 pg/mg, the “Interferon (IFN)-γ” value is given as 5.56 pg/mg, the “NK cell cytoxicity (%)” value is 8.90% and the “Phagocytosis (%)” value is recorded as 50.36%. For the same substance, in assay [1], the TNF-a/IL-10 is reported as 0.87 and the TNF-α amounted to 2.45 pg/mg. For the same substance, in assay [2], the “Exoporation (%) (in NOR task)” value was 76.97% and the “Spontaneous alteration (%) (in Y-maze task)” value came to 71.06%. In assay [2] (hippocampus), the IFN-γ/IL-10 was 0.50, the IL-10 is recorded as 47.71 pg/mg, the “Interferon (IFN)-γ” value turned out to be 24.09 pg/mg and the TNF-α is on record as 10.72 pg/mg. This substance yielded a TNF-α/IL-10 in assay [2] (hippocampus) of 0.24. Moreover, in the assay with healthy animal, the “Colon (cm)” value was 5.03 cm, the IFN-γ/IL-10 was found to be 1.52, the IL-10 is given as 42.89 pg/mg and the “Interferon (IFN)-γ” value is listed as 64.83 pg/mg. Further, in the assay on healthy animal, the MPO activity is 3.53 μUnit/mg, the TNF-a/IL-10 was 0.37 and the TNF-α is reported as 15.73 pg/mg.

Consider Lactobacillus rhamnosus NK210, for which, in assay [1], the “Foxp3 (fold change)” value was determined as 0.37 fold change, the “Tbet (fold change)” value came to 0.75 fold change, the Tbet/Foxp3 turned out to be 2.05 and the IFN-γ/IL-10 stood at 2.31. In assay [1], the IL-10 is 3.31 pg/mg, the “Interferon (IFN)-γ” value came to 7.39 pg/mg, the “NK cell cytoxicity (%)” value is 8.26% and the “Phagocytosis (%)” value was found to be 58.65%. In assay [1], this substance came in with a TNF-a/IL-10 of 1.04 and a TNF-α of 3.20 pg/mg. Besides, in assay [2], the “Exoporation (%) (in NOR task)” value turned out to be 76.00% and the “Spontaneous alteration (%) (in Y-maze task)” value was found to be 69.36%. Moreover, in assay [2] (hippocampus), the IFN-γ/IL-10 worked out at 0.52, the IL-10 was determined as 46.94 pg/mg, the “Interferon (IFN)-γ” value stood at 23.04 pg/mg and the TNF-α/IL-10 is 0.23. Further, in the assay with healthy animal, the “Colon (cm)” value turned out to be 5.12 cm, the IFN-γ/IL-10 stood at 1.40, the IL-10 worked out at 39.95 pg/mg and the “Interferon (IFN)-γ” value came out at 55.75 pg/mg. In the assay on healthy animal, this substance showed an MPO activity of 4.18 μUnit/mg, a TNF-a/IL-10 of 0.34 and a TNF-α of 13.40 pg/mg.
